Laboratory results published in patent publication US20160016951A1 (Merck Patent GmbH, priority 2014, published 2016).

Molecular target: T1, CDK8 (CDK8/CycC) (Homo sapiens, UniProt P49336)
T1 construct: purchased Invitrogen PV4402
Test: FRET based Lanthascreen binding competition assay
Conditions: 5 nM CDK8/CycC, 10 nM Alexa647-Tracer, 1% DMSO, 60 min at RT; read-out: IC50 CDK8 binding
How it was run: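 CDK8 co-expressed with CycC and labelled through biotinylated anti-His antibody and streptavidin-Eu was preincubated with compound for 20 min at RT. An Alexa647 ATP-competitive probe was then added for 60 min at RT in the dark. Probe displacement was read as loss of TR-FRET (excitation 340 nm, emission 650 nm).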

T1 sequence (P49336 whole entry): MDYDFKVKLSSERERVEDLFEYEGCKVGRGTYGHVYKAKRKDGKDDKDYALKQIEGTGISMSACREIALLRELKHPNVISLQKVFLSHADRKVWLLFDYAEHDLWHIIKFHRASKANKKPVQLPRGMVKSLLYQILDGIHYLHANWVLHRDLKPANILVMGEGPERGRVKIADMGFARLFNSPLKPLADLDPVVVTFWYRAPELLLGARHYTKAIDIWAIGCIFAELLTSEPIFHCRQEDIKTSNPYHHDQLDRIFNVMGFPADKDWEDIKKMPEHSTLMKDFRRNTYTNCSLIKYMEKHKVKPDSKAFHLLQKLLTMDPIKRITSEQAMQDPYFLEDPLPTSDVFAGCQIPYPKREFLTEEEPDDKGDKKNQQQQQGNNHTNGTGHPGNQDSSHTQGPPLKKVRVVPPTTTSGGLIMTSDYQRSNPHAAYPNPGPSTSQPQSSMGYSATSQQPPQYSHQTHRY
T1 sequence (P24863 whole entry partner): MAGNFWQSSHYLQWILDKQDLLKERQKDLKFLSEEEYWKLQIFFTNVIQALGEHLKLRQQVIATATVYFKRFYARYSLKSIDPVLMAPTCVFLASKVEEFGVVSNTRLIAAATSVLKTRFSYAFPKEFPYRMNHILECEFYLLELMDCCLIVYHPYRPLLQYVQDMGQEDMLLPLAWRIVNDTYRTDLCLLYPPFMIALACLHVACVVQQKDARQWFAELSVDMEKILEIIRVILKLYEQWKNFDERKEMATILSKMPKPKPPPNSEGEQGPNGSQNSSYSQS

SMILES	IC50
COC1(C)CN(C(=O)c2ccc3cncc(-c4ccc(-c5cnn(C)c5)cc4)c3n2)C1 [Compound 149, (3-methoxy-3-methylazetidin-1-yl)(8-(4-(1-methyl-1H-pyrazol-4-yl)phenyl)-1,6-naphthyridin-2-yl)methanone]	< 10 nM
CN(O)C(=O)c1ccc2cncc(-c3ccc(-c4cnn(C)c4)cc3)c2n1 [Compound 76, N-Hydroxy-N-methyl-8-(4-(1-methyl-1H-pyrazol-4-yl)phenyl)-1,6-naphthyridine-2-carboxamide]	< 10 nM
COc1ccc(CNC(=O)c2ccc3cncc(-c4ccc(-c5cnn(C)c5)cc4)c3n2)cc1 [Compound 81, N-(4-methoxybenzyl)-8-(4-(1-methyl-1H-pyrazol-4-yl)phenyl)-1,6-naphthyridine-2-carboxamide]	10 to 100 nM
Cn1cc(-c2ccc(-c3cncc4ccc(NS(=O)(=O)c5ccccc5)cc34)cc2)cn1 [Compound 152, N-{4-[4-(1-Methyl-1H-pyrazol-4-yl)-phenyl]-isoquinolin-6-yl}-benzenesulfonamide]	< 10 nM
O=C(c1ccc2cncc(-c3ccc4c(c3)CS(=O)(=O)N4)c2n1)N1CCC(F)(F)C1 [Compound 30, (3,3-difluoro-pyrrolidin-1-yl)-[8-(2,2-dioxo-2,3-dihydro-1H-benzo[c]isothiazol-5-yl)-[1,6]naphthyridin-2-yl]-methanone]	< 10 nM
CC(C)(O)Cn1cc(-c2ccc(-c3cncc4ccc(NS(C)(=O)=O)cc34)cc2)cn1 [Compound 138, N-(4-(4-(1-(2-hydroxy-2-methylpropyl)-1H-pyrazol-4-yl)phenyl)isoquinolin-6-yl)methanesulfonamide]	< 10 nM
Cc1nc(-c2ccc(-c3cnc(N)c4ccc(C(=O)N5CC(F)(F)C5)cc34)cc2)cn1C [Compound 176, {1-Amino-4-[4-(1,2-dimethyl-1H-imidazol-4-yl)-phenyl]-isoquinolin-6-yl}-(3,3-difluoro-azetidin-1-yl)-methanone]	10 to 100 nM
COCCNc1ccc2cncc(-c3ccc(-c4cnn(C)c4)cc3)c2c1 [Compound 105, (2-Methoxy-ethyl)-{4-[4-(1-methyl-1H-pyrazol-4-yl)-phenyl]-isoquinolin-6-yl}-amine]	< 10 nM
CC(C)S(=O)(=O)Nc1ccc2cncc(-c3ccc(-c4cnn(C)c4)cc3)c2c1 [Compound 157, Propane-2-sulfonic acid {4-[4-(1-methyl-1H-pyrazol-4-yl)-phenyl]-isoquinolin-6-yl}-amide]	< 10 nM
Cc1cc2cncc(-c3ccc4c(c3)CS(=O)(=O)N4C)c2nc1C(=O)N1CCC(F)(F)C1 [Compound 41, (3,3-Difluoro-pyrrolidin-1-yl)-[3-methyl-8-(1-methyl-2,2-dioxo-2,3-dihydro-1H-benzo[c]isothiazol-5-yl)-[1,6]naphthyridin-2-yl]-methanone]	10 to 100 nM
CN(C)C(=O)c1ccc2c(N)ncc(-c3ccc4c(c3)CS(=O)(=O)N4)c2n1 [Compound 59, 5-amino-8-(2,2-dioxido-1,3-dihydrobenzo[c]isothiazol-5-yl)-N,N-dimethyl-1,6-naphthyridine-2-carboxamide]	101 to 500 nM
COC1CN(C(=O)c2ccc3cncc(-c4ccc5c(cnn5CC(C)(C)O)c4)c3n2)C1 [Compound 52, (8-(1-(2-hydroxy-2-methylpropyl)-1H-indazol-5-yl)-1,6-naphthyridin-2-yl)(3-methoxyazetidin-1-yl)methanone]	10 to 100 nM
CN1c2ccc(-c3cncc4ccc(C(=O)NC5(C)CC5)nc34)cc2CS1(=O)=O [Compound 8, 8-(1-Methyl-2,2-dioxo-2,3-dihydro-1H-benzo[c]isothiazol-5-yl)-[1,6]naphthyridine-2-carboxylic acid (1-methyl-cyclopropyl)-amide]	< 10 nM
CN1c2ccc(-c3cncc4ccc(C(=O)N5CCNCC5)nc34)cc2CS1(=O)=O [Compound 18, [8-(1-Methyl-2,2-dioxo-2,3-dihydro-1H-benzo[c]isothiazol-5-yl)-[1,6]naphthyridin-2-yl]-piperazin-1-yl-methanone]	< 10 nM
COC1CN(C(=O)c2ccc3cncc(-c4ccc(-c5cn(C)nc5C(F)(F)F)cc4)c3n2)C1 [Compound 49, (3-methoxyazetidin-1-yl)(8-(4-(1-methyl-3-(trifluoromethyl)-1H-pyrazol-4-yl)phenyl)-1,6-naphthyridin-2-yl)methanone]	10 to 100 nM
COC1CN(C(=O)c2ccc3cncc(-c4ccc(-c5cc(C(F)(F)F)nn5C)cc4)c3n2)C1 [Compound 57, (3-methoxyazetidin-1-yl)(8-(4-(1-methyl-3-(trifluoromethyl)-1H-pyrazol-5-yl)phenyl)-1,6-naphthyridin-2-yl)methanone]	101 to 500 nM
C[C@@H](NC(=O)c1ccc2cncc(Br)c2n1)c1ccccc1 [Compound 48, (R)-8-bromo-N-(1-phenylethyl)-1,6-naphthyridine-2-carboxamide]	10 to 100 nM
O=C(c1ccc2cnccc2c1)N1CCC[C@H]1c1ccc(Cl)cc1 [Compound 113, (S)-(2-(4-chlorophenyl)pyrrolidin-1-yl)(isoquinolin-6-yl)methanone]	10 to 100 nM
Cn1cc(-c2ccc(-c3cncc4ccc(N5CCC(=O)C5)cc34)cc2)cn1 [Compound 115, 1-{4-[4-(1-Methyl-1H-pyrazol-4-yl)-phenyl]-isoquinolin-6-yl}-pyrrolidin-3-one]	10 to 100 nM

SMILES	IC50
Cn1cc(-c2ccc(-c3cncc4ccc(N5CCCC5=O)cc34)cc2)cn1 [Compound 128, 1-(4-(4-(1-Methyl-1H-pyrazol-4-yl)phenyl)isoquinolin-6-yl)pyrrolidin-2-one]	10 to 100 nM
COCCNC(=O)c1ccc2cncc(-c3ccc(-c4cnn(C)c4)cc3)c2n1 [Compound 74, N-(2-Methoxyethyl)-8-(4-(1-methyl-1H-pyrazol-4-yl)phenyl)-1,6-naphthyridine-2-carboxamide]	< 10 nM
COC1CN(C(=O)c2ccc3cncc(-c4ccc5c(c4)CC(=O)N5C)c3c2)C1 [Compound 159, 5-[6-(3-Methoxy-azetidine-1-carbonyl)-isoquinolin-4-yl]-1-methyl-1,3-dihydro-indol-2-one]	10 to 100 nM
CN1c2ccc(-c3cncc4ccc(C(=O)NCCN)nc34)cc2CS1(=O)=O [Compound 16, 8-(1-Methyl-2,2-dioxo-2,3-dihydro-1H-benzo[c]isothiazol-5-yl)-[1,6]naphthyridine-2-carboxylic acid (2-amino-ethyl)-amide]	< 10 nM
CC1CC(=O)N(c2ccc3cncc(-c4ccc(-c5cnn(C)c5)cc4)c3c2)C1 (stereo not shown) [Compound 111, 4-Methyl-1-{4-[4-(1-methyl-1H-pyrazol-4-yl)-phenyl]-isoquinolin-6-yl}-pyrrolidin-2-one]	10 to 100 nM
O=C(c1ccc2cncc(-c3ccc4c(c3)CS(=O)(=O)N4)c2c1)N1CCC1 [Compound 192, azetidin-1-yl(4-(2,2-dioxido-1,3-dihydrobenzo[c]isothiazol-5-yl)isoquinolin-6-yl)methanone]	< 10 nM
Cc1cncc2ccc(C(=O)N3CCC[C@H]3c3ccc(Cl)cc3)nc12 [Compound 83, (S)-(2-(4-chlorophenyl)pyrrolidin-1-yl)(8-methyl-1,6-naphthyridin-2-yl)methanone]	< 10 nM
Cn1cc(-c2ccc(-c3cncc4ccc(S(C)(=O)=O)cc34)cc2)cn1 [Compound 189, 6-Methanesulfonyl-4-[4-(1-methyl-1H-pyrazol-4-yl)-phenyl]-isoquinoline]	10 to 100 nM
CNC(=O)c1ccc2c(N)ncc(-c3ccc(-c4cnn(C)c4)cc3F)c2n1 [Compound 40, 5-amino-8-(2-fluoro-4-(1-methyl-1H-pyrazol-4-yl)phenyl)-N-methyl-1,6-naphthyridine-2-carboxamide]	10 to 100 nM
Nc1ncc(-c2ccc3c(c2)NC(=O)C3)c2cc(C(=O)N3CC(F)(F)C3)ccc12 [Compound 154, 6-(1-amino-6-(3,3-difluoroazetidine-1-carbonyl)isoquinolin-4-yl)indolin-2-one]	10 to 100 nM
CN1C(=O)Cc2ccc(-c3cncc4ccc(C(=O)N5CC(F)(F)C5)cc34)cc21 [Compound 163, 6-[6-(3,3-Difluoro-azetidine-1-carbonyl)-isoquinolin-4-yl]-1-methyl-1,3-dihydro-indol-2-one]	10 to 100 nM
CN1C(=O)Cc2cc(-c3cncc4ccc(C(=O)N5CC(F)(F)C5)cc34)ccc21 [Compound 170, 5-[6-(3,3-Difluoro-azetidine-1-carbonyl)-isoquinolin-4-yl]-1-methyl-1,3-dihydro-indol-2-one]	10 to 100 nM
Cn1cc(-c2ccc(-c3cncc4ccc(NS(=O)(=O)N5CCC5)cc34)cc2)cn1 [Compound 169, Azetidine-1-sulfonic acid {4-[4-(1-methyl-1H-pyrazol-4-yl)-phenyl]-isoquinolin-6-yl}-amide]	< 10 nM
O=C1Cc2ccc(-c3cncc4ccc(C(=O)N5CC(F)(F)C5)cc34)cc2N1 [Compound 146, 6-(6-(3,3-difluoroazetidine-1-carbonyl)isoquinolin-4-yl)indolin-2-one]	10 to 100 nM
Nc1nccc2cc(C(=O)N3CCC[C@H]3c3ccc(Cl)cc3)ccc12 [Compound 137, (S)-(1-aminoisoquinolin-6-yl)(2-(4-chlorophenyl)pyrrolidin-1-yl)methanone]	10 to 100 nM
O=C(c1ccc2cncc(Br)c2n1)N1CCC[C@H]1c1ccc(C(F)(F)F)cc1 [Compound 91, (S)-(8-bromo-1,6-naphthyridin-2-yl)(2-(4-(trifluoromethyl)phenyl)pyrrolidin-1-yl)methanone]	10 to 100 nM
CC(C)(O)Cn1cc(-c2ccc(-c3cncc4ccc(C(=O)N5CC(F)(F)C5)cc34)cc2)cn1 [Compound 136]	10 to 100 nM
CN(CCO)C(=O)c1ccc2cncc(-c3ccc4c(c3)CS(=O)(=O)N4)c2n1 [Compound 45, 8-(2,2-Dioxo-2,3-dihydro-1H-benzo[c]isothiazol-5-yl)-[1,6]naphthyridine-2-carboxylic acid (2-hydroxy-ethyl)-methyl-amide]	10 to 100 nM
